Results reported in patent publication US8574563B2 (Bristol-Myers Squibb Company, priority 2006, dated 2013).

The compounds below were run on HCV 1b-377-neo replicon cells (assay: HCV replicon assay, HCV 1b-377-neo replicon cells (1b FRET)). Details: HCV 1b-377-neo replicon cells; HCV 1b genotype.
Format: cell-based, Hepatitis C virus genotype 1b
Method: An HCV Replion assay was utilized in the present disclosure, and was prepared, conducted and validated as described in commonly owned PCT/US2006/022197 and in O'Boyle et. al. Antimicrob Agents Chemother. 2005 April; 49(4):1346-53.
HCV 1b-377-neo replicon cells were used to test the currently described compound series as well as cells resistant to compound A due to a Y2065H mutation in NS5A (described in application PCT/US2006/022197). The compounds tested were determined to have more than 10-fold less inhibitory activity on cells resistant to compound A than wild-type cells indicating a related mechanism of action between the two compound series. Thus, the compounds of the present disclosure can be effective to inhibit the function of the HCV NS5A protein and are understood to be as effective in combinations as previously described in application PCT/US2006/022197 and commonly owned WO/04014852. Further, the compounds of the present disclosure can be effective against the HCV 1b genotype. It should also be understood that the compounds of the present disclosure can inhibit multiple genotypes of HCV. […] In one embodiment compounds of the present disclosure are active against the 1a, 1b, 2a, 2b, 3a, 4a, and 5a genotypes.

Compound	EC50 range against HCV 1b (Table 2, Range)
COC(=O)N[C@H](C(=O)N1CCC[C@H]1c1ncc(-c2ccc(-c3ccc(-c4cnc([C@@H]5CCCN5C(=O)[C@@H](NC(=O)OC)C(C)C)[nH]4)cc3C(=O)O)cc2)[nH]1)C(C)C [Example M114, 4,4′-bis(2-((2S)-1-(N-(methoxycarbonyl)-L-valyl)-2-pyrrolidinyl)-1H-imidazol-5-yl)-2-biphenylcarboxylic acid]	>A
COC(=O)NC(C)(C)C(=O)N1CCC[C@H]1c1ncc(-c2ccc(-c3ccc(-c4cnc([C@@H]5CCCN5C(=O)C(C)(C)NC(=O)OC)[nH]4)cc3)cc2)[nH]1 [Example M7, methyl (2-((2S)-2-(5-(4′-(2-((2S)-1-(2-((methoxycarbonyl)amino)-2-methylpropanoyl)-2-pyrrolidinyl)-1H-imidazol-5-yl)-4-biphenylyl)-1H-imidazol-2-yl)-1-pyrrolidinyl)-1,1-dimethyl-2-oxoethyl)carbamate]	>A

Same assay, conditions: HCV 1b-377-neo replicon cells; HCV 1b genotype; read-out: EC50 range against HCV 1b (Table 2, Range)

Compound	EC50 [nM]
methyl ((1R)-2-((2S)-2-(5-(4′-(2-((2S)-1-(3- benzoylbenzyl)-2-pyrrolidinyl)-1H- imidazol-5-yl)-4-biphenylyl)-1H-imidazol-2- yl)-1-pyrrolidinyl)-2-oxo-1- phenylethyl)carbamate [Example 84-34]	1 to 99

Same assay, conditions: Hepatitis C virus, HCV 1b-377-neo replicon cells; HCV 1b genotype; read-out: EC50 range against HCV 1b (Table 2, Range)

Compound	EC50 [nM]
COC(=O)N[C@@H](C)C(=O)N1CCC[C@H]1c1ncc(-c2ccc(-c3ccc(-c4cnc([C@@H]5CCCN5C(=O)[C@@H](NC(=O)OC)C(C)C)[nH]4)cc3)cc2F)[nH]1 [Example D41, methyl ((1S)-1-(((2S)-2-(5-(3′-fluoro-4′-(2-((2S)-1-(N-(methoxycarbonyl)-L-alanyl)-2-pyrrolidinyl)-1H-imidazol-5-yl)-4-biphenylyl)-1H-imidazol-2-yl)-1-pyrrolidinyl)carbonyl)-2-methylpropyl) carbamate]	0.001 to 0.999
C[C@H](NC(=O)[C@@H](c1ccccc1)N(C)C)c1ncc(-c2cnc(-c3ccc(-c4cnc([C@@H]5CCCN5C(=O)[C@@H](c5ccccc5)N(C)C)[nH]4)cc3)cn2)[nH]1 [Example 152j-18, (2R)-2-(dimethylamino)-N-((1S)-1-(5-(5-(4-(2-((2S)-1-((2R)-2-(dimethylamino)-2-phenylacetyl)-2-pyrrolidinyl)-1H-imidazol-5-yl)phenyl)-2-pyrazinyl)-1H-imidazol-2-yl)ethyl)-2-phenylacetamide]	0.001 to 0.999
COC(=O)N[C@@H](C(=O)N1CCC[C@H]1c1ncc(-c2ccc(-c3ccc(-c4cnc([C@@H]5CCCN5C(=O)[C@@H](OC(C)=O)c5ccccc5)[nH]4)cc3)cc2)[nH]1)c1ccccc1 [Example 84-83, (1S)-2-((2S)-2-(5-(4′-(2-((2S)-1-((2R)-2-((methoxycarbonyl)amino)-2-phenylacetyl)-2-pyrrolidinyl)-1H-imidazol-5-yl)-4-biphenylyl)-1H-imidazol-2-yl)-1-pyrrolidinyl)-2-oxo-1-phenylethyl acetate]	0.001 to 0.999
C=CC[C@H](NC(=O)OC)C(=O)N1CCC[C@H]1c1ncc(-c2ccc(-c3ccc(-c4cnc([C@@H]5CCCN5C(=O)[C@@H](NC(=O)OC)C(C)C)[nH]4)cc3)cc2)[nH]1 [Example M76, methyl ((1S)-1-(((2S)-2-(5-(4′-(2-((2S)-1-((2S)-2-((methoxycarbonyl)amino)-3-methylbutanoyl)-2-pyrrolidinyl)-1H-imidazol-5-yl)-4-biphenylyl)-1H-imidazol-2-yl)-1-pyrrolidinyl)carbonyl)-3-buten-1-yl)carbamate]	1 to 99
CN(C)[C@@H](C(=O)N1CCC[C@H]1c1ncc(-c2ccc(-c3ccc(-c4cnc([C@@H]5CCCN5C(=O)[C@H]5CCC(=O)N5)[nH]4)cc3)cc2)[nH]1)c1ccccc1 [Example 94-2, (5R)-5-(((2S)-2-(5-(4′-(2-((2S)-1-((2R)-2-(dimethylamino)-2-phenylacetyl)-2-pyrrolidinyl)-1H-imidazol-5-yl)-4-biphenylyl)-1H-imidazol-2-yl)-1-pyrrolidinyl)carbonyl)-2-pyrrolidinone]	1 to 99
COC(=O)N[C@H](C(=O)N1[C@H](c2ncc(-c3ccc(-c4ccc(-c5cnc([C@@H]6C[C@@H]7C[C@@H]7N6C(=O)[C@@H](NC(=O)OC)C(C)(C)O)[nH]5)cc4)cc3)[nH]2)C[C@@H]2C[C@@H]21)C(C)(C)O [Example M125, methyl ((1S)-2-hydroxy-1-(((1S,3S,5S)-3-(5-(4′-(2-((1S,3S,5S)-2-((2S)-3-hydroxy-2-((methoxycarbonyl)amino)-3-methylbutanoyl)-2-azabicyclo[3.1.0]hex-3-yl)-1H-imidazol-5-yl)-4-biphenylyl)-1H-imidazol-2-yl)-2-azabicyclo[3.1.0]hex-2-yl)carbonyl)-2-methylpropyl)carbamate]	1 to 99
COC(=O)N[C@H](C(=O)N1CCC[C@H]1c1ncc(-c2ccc(-c3ccc(-c4cnc([C@@H]5CCCN5C(=O)[C@@H](NC(=O)OC)[C@@H](C)CO)[nH]4)cc3)cc2)[nH]1)C(C)C [Example M106]	1 to 99
CCN(CC)[C@@H](C(=O)N1CCC[C@H]1c1ncc(-c2ccc(-c3ccc(-c4cnc([C@@H]5CCCN5C(=O)C[C@H](Cc5cccs5)NC(=O)OC)[nH]4)cc3)cc2)[nH]1)c1ccccc1 [cj-54, methyl ((1R)-3-((2S)-2-(5-(4′-(2-((2S)-1-((2R)-2-(diethylamino)-2-phenylacetyl)-2-pyrrolidinyl)-1H-imidazol-5-yl)-4-biphenylyl)-1H-imidazol-2-yl)-1-pyrrolidinyl)-3-oxo-1-(2-thienylmethyl)propyl)carbamate]	0.001 to 0.999
CCC(C)[C@@H](C(=O)N1CCC[C@H]1c1nc(-c2ccc(-c3ccc(-c4cnc([C@@H]5CCCN5C(=O)[C@H](C(C)CC)N(C)C(=O)OC(C)(C)C)[nH]4)cc3)cc2)c[nH]1)N(C)C(=O)OC(C)(C)C (stereo partly drawn) [Example F29, tert-butyl ((1S)-1-(((2S)-2-(5-(4′-(2-((2S)-1-((2S)-2-((tert-butoxycarbonyl)(methyl)amino)-3-methylpentanoyl)-2-pyrrolidinyl)-1H-imidazol-4-yl)-4-biphenylyl)-1H-imidazol-2-yl)-1-pyrrolidinyl)carbonyl)-2-methylbutyl)methylcarbamate]	1 to 99
COC(=O)N[C@@H](C(=O)N1CCC[C@H]1c1ncc(-c2ccc(-c3ccc(-c4cnc([C@@H]5CCCN5C(=O)[C@H]5CCCO5)[nH]4)cc3)cc2)[nH]1)c1ccccc1 [Example 36, methyl ((1R)-2-oxo-1-phenyl-2-((2S)-2-(5-(4′-(2-((2S)-1-((2R)-tetrahydro-2-furanylcarbonyl)-2-pyrrolidinyl)-1H-imidazol-5-yl)-4-biphenylyl)-1H-imidazol-2-yl)-1-pyrrolidinyl)ethyl)carbamate]	0.001 to 0.999
COC(=O)N[C@H](C(=O)N1CCC[C@H]1c1ncc(-c2ccc(-c3ccc(-c4nc([C@@H]5CCCN5C(=O)[C@@H](NC(=O)OC)[C@@H](C)OC)[nH]c4C)cc3)cc2)[nH]1)C(C)OC (stereo in doubt) [Example E5f, methyl ((1S,2R)-2-methoxy-1-(((2S)-2-(4-(4′-(2-((2S)-1-(N-(methoxycarbonyl)-O-methyl-L-threonyl)-2-pyrrolidinyl)-4-methyl-1H-imidazol-5-yl)-4-biphenylyl)-1H-imidazol-2-yl)-1-pyrrolidinyl)carbonyl)propyl)carbamate]	0.001 to 0.999
C=CC[C@H](NC(=O)OC)C(=O)N1CCC[C@H]1c1ncc(-c2ccc(-c3ccc(-c4cnc([C@@H]5CCCN5C(=O)[C@H](CC=C)NC(=O)OC)[nH]4)cc3)cc2)[nH]1 [Example M25, dimethyl (4,4′-biphenyldiylbis(1H-imidazole-5,2-diyl(2S)-2,1-pyrrolidinediyl((4S)-5-oxo-1-pentene-5,4-diyl)))biscarbamate]	1 to 99
COC(=O)NCC(=O)N1CCC[C@H]1c1ncc(-c2ccc(-c3ccc(-c4cnc([C@@H]5CCCN5C(=O)[C@@H](c5ccccc5)N5CCCC5)[nH]4)cc3)cc2)[nH]1 [Example 102, methyl (2-oxo-2-((2S)-2-(5-(4′-(2-((2S)-1-((2R)-2-phenyl-2-(1-pyrrolidinyl)acetyl)-2-pyrrolidinyl)-1H-imidazol-5-yl)-4-biphenylyl)-1H-imidazol-2-yl)-1-pyrrolidinyl)ethyl)carbamate]	0.001 to 0.999
CC(=O)N[C@@H](C(=O)N1CCC[C@H]1c1ncc(-c2ccc(-c3ccc(-c4cnc([C@@H]5CCCN5C(=O)[C@H](NC(C)=O)c5ccccc5)[nH]4)cc3)cc2)[nH]1)c1ccccc1 [Example 25, N,N′-(4,4′-biphenyldiylbis(1H-imidazole-5,2-diyl(2S)-2,1-pyrrolidinediyl((1R)-2-oxo-1-phenyl-2,1-ethanediyl)))diacetamide]	0.001 to 0.999
COC(=O)N[C@@H](C(=O)N1CCC[C@H]1c1ncc(-c2ccc(-c3ccc(-c4cnc([C@@H]5CCCN5C(=O)C(c5cccc(F)c5)N(C)C)[nH]4)cc3)cc2)[nH]1)c1ccccc1 (stereo partly drawn) [Example 84-60, methyl ((1R)-2-((2S)-2-(5-(4′-(2-((2S)-1-((dimethylamino)(3-fluorophenyl)acetyl)-2-pyrrolidinyl)-1H-imidazol-5-yl)-4-biphenylyl)-1H-imidazol-2-yl)-1-pyrrolidinyl)-2-oxo-1-phenylethyl)carbamate]	0.001 to 0.999
